# Values of other authors in patent US11279710B2, “Processes for preparing ACC inhibitors and solid forms thereof” (Gilead Sciences, Inc., priority 2017, dated 2022).
# pIC50: −log10 of the molar value.
# Assays:
# [1] = tested on: ACC1; conditions: ACC1 isolated from rat, mouse, monkey and human
# [2] = tested on: ACC2; conditions: ACC2 isolated from rat, mouse, monkey and human
# [3] = target: T1, pyruvate carboxylase (Homo sapiens, UniProt P11498)
# T1 sequence (P11498 21-1178): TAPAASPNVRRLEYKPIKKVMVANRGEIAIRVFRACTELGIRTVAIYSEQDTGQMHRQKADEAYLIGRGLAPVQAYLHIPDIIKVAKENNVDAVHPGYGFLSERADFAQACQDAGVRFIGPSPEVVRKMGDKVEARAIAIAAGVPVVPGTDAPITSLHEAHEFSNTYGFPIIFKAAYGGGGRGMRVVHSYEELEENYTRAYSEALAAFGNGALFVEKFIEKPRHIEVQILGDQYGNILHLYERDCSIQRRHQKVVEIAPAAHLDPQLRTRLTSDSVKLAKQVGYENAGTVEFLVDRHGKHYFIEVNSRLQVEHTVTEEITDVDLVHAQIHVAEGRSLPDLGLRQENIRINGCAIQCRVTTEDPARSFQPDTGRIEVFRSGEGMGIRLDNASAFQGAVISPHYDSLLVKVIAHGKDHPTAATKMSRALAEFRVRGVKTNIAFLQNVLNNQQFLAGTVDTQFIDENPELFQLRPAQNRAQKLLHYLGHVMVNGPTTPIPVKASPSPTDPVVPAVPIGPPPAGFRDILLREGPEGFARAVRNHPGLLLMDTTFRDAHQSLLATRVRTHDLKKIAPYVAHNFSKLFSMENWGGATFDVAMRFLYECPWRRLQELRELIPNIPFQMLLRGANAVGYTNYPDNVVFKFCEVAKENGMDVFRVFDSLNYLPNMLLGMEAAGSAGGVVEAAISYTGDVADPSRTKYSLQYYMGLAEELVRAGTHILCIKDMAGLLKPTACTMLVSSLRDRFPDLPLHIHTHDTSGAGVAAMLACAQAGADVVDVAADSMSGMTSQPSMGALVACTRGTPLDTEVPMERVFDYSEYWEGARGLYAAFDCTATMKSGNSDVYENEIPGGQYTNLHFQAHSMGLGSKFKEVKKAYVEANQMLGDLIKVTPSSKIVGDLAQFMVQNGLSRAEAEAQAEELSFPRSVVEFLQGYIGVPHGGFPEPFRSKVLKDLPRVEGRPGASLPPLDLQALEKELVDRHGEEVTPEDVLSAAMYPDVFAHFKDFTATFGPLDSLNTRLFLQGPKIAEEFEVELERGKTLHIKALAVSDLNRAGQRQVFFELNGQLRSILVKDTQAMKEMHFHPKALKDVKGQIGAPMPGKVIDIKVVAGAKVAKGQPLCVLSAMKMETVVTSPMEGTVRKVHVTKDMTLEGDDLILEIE
# [4] = target: T2, propionyl-CoA carboxylase (Homo sapiens, UniProt P05165+P05166)
# T2 sequence (P05165 53-728): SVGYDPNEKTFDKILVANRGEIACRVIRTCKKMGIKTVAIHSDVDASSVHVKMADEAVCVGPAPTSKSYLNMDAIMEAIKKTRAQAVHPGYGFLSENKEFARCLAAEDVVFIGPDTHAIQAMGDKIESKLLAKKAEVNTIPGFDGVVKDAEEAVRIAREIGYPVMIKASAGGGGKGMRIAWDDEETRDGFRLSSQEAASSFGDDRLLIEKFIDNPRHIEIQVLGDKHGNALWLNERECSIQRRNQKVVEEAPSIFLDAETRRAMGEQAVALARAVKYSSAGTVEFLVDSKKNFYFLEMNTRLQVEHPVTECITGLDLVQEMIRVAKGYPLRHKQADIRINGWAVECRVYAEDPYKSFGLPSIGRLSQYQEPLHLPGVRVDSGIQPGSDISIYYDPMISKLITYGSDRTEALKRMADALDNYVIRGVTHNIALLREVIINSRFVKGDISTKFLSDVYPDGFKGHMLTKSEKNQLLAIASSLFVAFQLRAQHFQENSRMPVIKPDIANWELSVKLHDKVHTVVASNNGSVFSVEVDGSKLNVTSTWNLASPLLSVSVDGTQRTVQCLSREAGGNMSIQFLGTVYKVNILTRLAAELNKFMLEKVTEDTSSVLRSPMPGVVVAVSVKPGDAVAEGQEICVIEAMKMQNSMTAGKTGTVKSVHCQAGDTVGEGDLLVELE
# T2 sequence (P05166 29-539): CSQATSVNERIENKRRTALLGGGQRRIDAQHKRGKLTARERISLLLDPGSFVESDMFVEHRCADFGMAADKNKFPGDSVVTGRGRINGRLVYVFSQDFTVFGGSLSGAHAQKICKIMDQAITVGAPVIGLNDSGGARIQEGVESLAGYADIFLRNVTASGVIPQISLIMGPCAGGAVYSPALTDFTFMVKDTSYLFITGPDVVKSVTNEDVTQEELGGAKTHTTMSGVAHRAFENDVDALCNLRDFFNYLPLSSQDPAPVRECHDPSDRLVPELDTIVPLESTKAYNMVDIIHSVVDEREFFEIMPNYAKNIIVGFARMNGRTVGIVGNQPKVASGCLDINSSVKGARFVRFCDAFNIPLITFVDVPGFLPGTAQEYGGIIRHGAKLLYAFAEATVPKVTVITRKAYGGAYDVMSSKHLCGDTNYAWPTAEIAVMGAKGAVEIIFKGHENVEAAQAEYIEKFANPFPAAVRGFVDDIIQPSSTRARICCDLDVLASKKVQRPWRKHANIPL
# [5] = tested on: Hep-G2 cells
# [6] = tested on: C2C12 cells
# [7] = tested on: rat muscle slices
# [8] = sucrose-fed rats, three weeks
# [9] = tested on: insulin-resistant rat muscle tissue; conditions: within 30 min of compound administration
# [10] = rats, acute (46 min) treatment
# [11] = tested on: ACC
# [12] = tested on: human liposarcoma
smiles,measurement,setting,value
O=C(c1c2ccccc2cc2ccccc12)N1CCC(N2CCC[C@@H](C(=O)N3CCOCC3)C2)CC1 [CP-640186],pIC50,[1],~7.22
same,pIC50,[2],~7.22
same,inhibition of pyruvate carboxylase,[3],without inhibiting
same,inhibition of propionyl-CoA carboxylase,[4],without inhibiting
same,CPT-I activity,[5],increased
same,FA synthesis,[5],reduced
same,apoA1 secretion,[5],without affecting
same,apoB secretion,[5],reduced
same,cholesterol synthesis,[5],without affecting
same,triglyceride synthesis and secretion,[5],reduced
same,FA oxidation,[6],stimulated
same,FA oxidation,[7],stimulated
same,liver and adipose tissue FA synthesis,experimental animals,reduced
same,whole body FA oxidation,experimental animals,increased
same,malonyl-CoA concentration,"lipogenic and oxidative tissues, fed and fasted state",acutely reduced
same,hyperinsulinemia produced by the high sucrose diet,[8],reduced
same,insulin sensitivity,[8],improved
same,lean body mass,[8],without reducing
same,leptin levels,[8],reduced
same,"liver, muscle and adipose triglycerides",[8],time- and dose-dependently reduced
same,plasma glucose levels,[8],without changing
same,body weight,[8]; due to selective fat reduction,reduced
same,insulin sensitivity,[9],stimulation
same,FA clearance,[10],stimulated
same,glucose clearance,[10],without decreasing
"COc1ccccc1[C@H](Cn1c(=O)n(C(C)(C)C(=O)O)c(=O)c2c(C)c(-c3ncco3)sc21)OC1CCOCC1 [Compound I, (R)-2-(1-(2-(2-methoxyphenyl)-2-((tetrahydro-2H-pyran-4-yl)oxy)ethyl)-5-methyl-6-(oxazol-2-yl)-2,4-dioxo-1,2-dihydrothieno[2,3-d]pyrimidin-3(4H)-yl)-2-methylpropanoic acid]",ACC inhibitory activity,[11],exhibits ACC inhibitory activity
CO[C@H]1CCCC[C@@H](c2ccccc2)OC(=O)[C@@H](C)[C@@]2(O)O[C@H]([C@@H](C)[C@H](O)[C@H]2OC)[C@@H](C)/C=C/[C@H]1OC [soraphen A],lipogenesis,[12],inhibited
same,tumor cell growth,[12],inhibited
